Data reported in paper PMC8608967, “KDS2010, a Newly Developed Reversible MAO-B Inhibitor, as an Effective Therapeutic Candidate for Parkinson’s Disease” (Neurotherapeutics, 2021).

What was measured:
[1] = molecular target: T1, human recombinant MAO-B (hMAO-B) (Homo sapiens, UniProt P27338); assay: In vitro MAO-B enzyme assay (H2O2 release, absorbance 570 nm); format: biochemical
T1 construct: purchased Sigma Aldrich
T1 sequence (P27338 1-520): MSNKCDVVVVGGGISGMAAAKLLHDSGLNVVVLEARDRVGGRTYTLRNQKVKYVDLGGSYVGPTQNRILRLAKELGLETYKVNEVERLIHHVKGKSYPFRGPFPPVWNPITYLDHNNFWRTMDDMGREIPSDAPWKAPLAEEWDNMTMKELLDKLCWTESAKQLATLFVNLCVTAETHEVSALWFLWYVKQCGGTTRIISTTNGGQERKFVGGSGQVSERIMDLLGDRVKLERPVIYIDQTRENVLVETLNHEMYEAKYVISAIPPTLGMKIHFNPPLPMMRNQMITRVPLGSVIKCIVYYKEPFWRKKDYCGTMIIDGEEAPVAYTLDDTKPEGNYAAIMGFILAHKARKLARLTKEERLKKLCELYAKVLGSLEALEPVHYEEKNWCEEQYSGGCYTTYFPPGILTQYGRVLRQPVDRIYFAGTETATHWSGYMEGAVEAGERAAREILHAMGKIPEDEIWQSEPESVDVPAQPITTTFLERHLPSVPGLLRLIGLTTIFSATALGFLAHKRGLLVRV
Method: In brief, human recombinant MAO-A (hMAO-A) and MAO-B (hMAO-B) (Sigma Aldrich) were diluted in 50 mM phosphate buffer (~ 0.3 μg MAO-A protein/well or ~ 2.5 μg MAO-B protein/well), and the test compound was added in DMSO to a final concentration from 0.1 nM to 10 μM. The amount of hydrogen peroxide (H2O2) released after addition of enzyme substrate (p-tyramine for MAO-A or benzylamine for MAO-B) was quantified by measuring the absorbance increase at 570 nm on a microplate reader.

[2] = test system: A53T mutant α-synuclein-overexpressing PD model rats; assay: A53T mutant α-synuclein rat model: stepping test and cylinder test; format: in vivo; conditions: 10 mg/kg/day for 15 days
Method: (§1) Throughout the study, confounders were not controlled.
Motor dysfunction of A53T α-synuclein model rats was tested using the forelimb-use asymmetry test (cylinder test). Briefly, animals were placed in a transparent Plexiglas cylinder (20 cm in diameter and 30 cm in height) for 2 min to assess the frequency of ipsilesional and contralesional forelimb usage against the cylinder wall for supporting an upright body posture. The test score was calculated as the ratio of ipsilateral usage frequency to total ipsilateral plus contralateral usage frequency.

[3] = test system: A53T mutant α-synuclein-overexpressing PD model rats; assay: A53T mutant α-synuclein rat model: TH staining; format: in vivo; conditions: 10 mg/kg/day for 15 days starting 3 weeks after virus injection
From the text: as §1

[4] = Toxicokinetics in 4-week repeated-dose study in cynomolgus monkeys (G218027); format: in vivo, cynomolgus monkey (Macaca fascicularis)
Method: In the repeated 4-week oral administration toxicity with 2-week recovery and toxicokinetic test (G218027), monkeys were assigned to 4 groups of 3 males and 3 females. Each group was orally administered KDS2010 at 0, 10, 20, or 40 mg/kg/day once a day for 4 weeks. Toxicity tests were conducted as described for study G217013. For toxicokinetic measurements, blood samples were collected pre-dose (time 0) and at 1, 2, 4, 6, 8, 10, and 24 h after oral administration on the first day (day 1) and the last day (week 4; day 28) of dosing.
A non-compartmental analysis module in Phoenix® WinNonlin® (version 6.4) (Certara Inc., CA, USA) was used to calculate pharmacokinetic (PK) parameters. Systemic exposure to KDS2010 was calculated by applying the linear trapezoidal rule to the area under the plasma concentration–time curve from time zero to the last quantifiable time point (AUClast), and the maximum observed peak plasma concentration (Cmax) and the time to reach Cmax (Tmax) were determined based on the observed data. The apparent terminal elimination half-life (t1/2) was calculated from the apparent terminal elimination rate constant using the formula t1/2 = 0.693/kel.

[5] = molecular target: T2, human recombinant MAO-A (hMAO-A) (Homo sapiens, UniProt P21397); conditions: ref Park, JH. et al. Science Advances. 5(3), eaav0136 (2019), read-out: Inhibition (IC50) MAO-A; cited from earlier work
T2 construct: purchased Sigma Aldrich
T2 sequence (P21397 1-527): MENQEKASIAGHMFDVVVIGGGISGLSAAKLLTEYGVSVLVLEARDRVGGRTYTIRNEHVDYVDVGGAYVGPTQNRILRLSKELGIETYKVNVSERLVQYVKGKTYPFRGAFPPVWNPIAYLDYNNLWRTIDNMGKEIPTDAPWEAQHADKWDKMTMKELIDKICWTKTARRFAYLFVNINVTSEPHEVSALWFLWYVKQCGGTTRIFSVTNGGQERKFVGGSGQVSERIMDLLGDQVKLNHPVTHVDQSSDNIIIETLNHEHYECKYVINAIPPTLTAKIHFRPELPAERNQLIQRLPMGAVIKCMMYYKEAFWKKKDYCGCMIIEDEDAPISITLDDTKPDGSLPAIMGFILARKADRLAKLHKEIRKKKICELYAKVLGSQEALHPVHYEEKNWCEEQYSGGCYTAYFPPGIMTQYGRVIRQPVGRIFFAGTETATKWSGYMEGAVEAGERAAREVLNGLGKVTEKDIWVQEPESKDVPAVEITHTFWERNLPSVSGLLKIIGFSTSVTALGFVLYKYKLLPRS

post-stroke recovery = test system: post-stroke recovery; set-up: method as in PMID 32640227; conditions: long-term treatment accompanied by rehabilitation training; cited from earlier work

With `C[C@H](NCc1ccc(-c2ccc(C(F)(F)F)cc2)cc1)C(N)=O` [Compound 18j] the “higher MAO-B inhibitory effect of (S)-stereoisomer than (R)-isomer (19j)” value [1] was “eightfold”, the “cylinder test: asymmetric usage of forelimbs” value [2] was “alleviated” and the “stepping test: impaired stepping behavior of the contralateral forepaw” value [2] was “significantly alleviated”. The “number of remaining TH-positive neurons in the injected SNpc” value [3] was “increased”, the “striatal TH loss” value [3] was “significantly reversed” and the Tmax ([4]; both sexes, cynomolgus monkey, plasma, po, cynomolgus monkeys, 10, 20 or 40 mg/kg/day p.o.) was 4.72 ± 1.93 h. The “dose-dependent increase of AUClast” value ([4]; cynomolgus monkeys, 10, 20, 40 mg/kg/day p.o.) was “slightly less than proportional”, the IC50 [5] was greater than 100 µM and the post-stroke recovery (post-stroke recovery) was “dramatically improved”.
